Source: paper PMC11219871, “Epigenetic-based differentiation therapy for Acute Myeloid Leukemia” (Nature Communications, 2024)
Read-outs that look alike come from different tables or passages of the source.

How the values were obtained:
[1] = Cytotoxicity (LC50); assay type: cell-based; settings: human, THLE-2 cells (immortalized liver cell line, ATCC CRL-2706)
[2] = system: HL-60; experiment: RNA-seq; assay type: cell-based, human; settings: for ABI1 Log2FC / CBFB Log2FC / CCR2 Log2FC / CD44 Log2FC / CDK6 Log2FC / CEBPB Log2FC / CSF3R Log2FC / CTNNBIP1 Log2FC / ELANE Log2FC / EP300 Log2FC / FLI1 Log2FC / FUT4 Log2FC / GATA2 Log2FC / HCLS1 Log2FC / ITGA4 Log2FC / ITGAM Log2FC / ITGB1 Log2FC / ITGB2 Log2FC / JUN Log2FC / MPO Log2FC / MYC Log2FC / NFE2 Log2FC / PIR Log2FC / RUNX1 Log2FC / SOX4 Log2FC / SPI1 Log2FC / TESC Log2FC / TRIB1 Log2FC / ZBTB46 Log2FC / ZFP36L1 Log2FC: HL-60, RNA-Seq
Procedure: (§1) Transcriptomic analyses were performed following low-input 3′ end RNA sequencing approximation for characterization of transcriptional changes in ML-2 and HL-60 samples treated with CM-444 and CM-1758.
(§2) Low-input 3′ end RNA-seq was performed as previously described[53],[54] with minor modifications. Briefly, RNA from 0.1 ×10^6 cells from each experimental condition was purified using a Dynabeads mRNA DIRECT Purification Kit (Thermo Fisher Scientific). For barcoded cDNA generation, polyadenylated RNA was retrotranscribed using an Affinity Script cDNA Synthesis Kit (Agilent Technologies), and barcoded primers also harboring T7 promoter and a partial Read2 sequence for illumine sequencing (CGATTGAGGCCGGTAATACGACTCACTATAGGGGGCGACGTGTGCTCTTCCGATCTXXXXXXNNNNTTTTTTTTTTTTTTTTTTTT, where XXXXXX is the cell barcode and NNN is a unique molecular identifier or UMI, which represents the same initial RNA molecule for future quantification). At this point, the samples were pooled (≤6 samples per pool) at equimolar ratios assessed by q-PCR.
(§3) The samples were then treated with Exonuclease I (Thermo Fisher Scientific following a 1.2x positive SPRI-selection. Second-strand cDNA synthesis was then performed using a NEBNext Ultra II Directional RNA Second-Strand Synthesis Module (New England Biolabs) for 2 h at 16 °C, followed by a 1.4x positive solid-phase reverse immobilization (SPRI) cleanup. The samples were linearly amplified by T7 in vitro transcription using a T7 RNA Polymerase (New England Biolabs) for 16 h at 37 °C. After DNAse treatment (TURBO DNAse I, Thermo Fisher Scientific) for 15 min at 37 °C to remove dsDNA, samples were cleaned with a positive 1.2x SPRI-selection. RNA size, quality, and concentration were determined by analysis with a Qubit Fluorometer (Termo Fisher Scientific) and TapeStation (Agilent 4200 TapeSation System, Agilent Technologies). If necessary, RNA was fragmented in 200- to 300-bp fragments using Zn2+divalent cations followed by a 2x positive SPRI cleanup. Fragmented RNA was dephosphorylated using FastAP Thermosensitive Alkaline Phosphatase (Thermo Fisher Scientific) for 10 min at 37 °C to enhance RNA ligation yield. In this step, a partial Read1 ([…]) sequence for illumine sequencing was ligated to the 3′ end of the fragmented RNA using T4 RNA Ligase I (New England Biolabs). After a 1.5x positive SPRI cleanup, the RNA product was retrotranscribed using an Affinity Script cDNA Synthesis Kit (Agilent Technologies) and a specific retrotranscription primer ([…]). The library was then purified by 1.5x positive SPRI cleanup, and the yield of the previous steps was determined by q-PCR. Finally, PCR using KAPA HiFi HotStar Ready Mix (Kapa Biosystems) was performed for second-strand cDNA synthesis, illumine primers addition (Read1-P5: […] and Read2-P7: […]) and library amplification using the recommended cycle numbers to minimize over-amplification. The product was purified by a 0.7x positive SPRI cleanup. The quality of the final library was determined by q-PCR (based on the threshold cycle, or Ct, obtained for GAPDH (Fw: […], Rv: […]) or GUSB (Fw: […], Rv: […]) housekeeping genes calibrated per individual set of samples, Qubit Fluorometer (Thermo Fisher Scientific) and TapeStation (Agilent 4200 TapeStation System, Agilent Technologies). All libraries were pooled at equimolar ratios and sequenced on a NextSeq500 (Illumina) using 60 bp single-end reads at a minimum sequence depth of 10 million reads per sample.
(§4) Raw reads were demultiplexed using bcl2fastq2 Conversion Software v2.19 (Illumina) to convert base call (BCL) files into FastQ files. The quality control of FastQ files was performed using FastQC (Bioinformatics Babraham Institute). Sequencing reads were aligned to hg19 human reference using Bowtie 2 (Johns Hopkins University) and quantified using quant3p script (github.com/ctlab/quant3p). […]

[3] = system: ML-2; experiment: RNA-seq; assay type: cell-based, human; settings: for ABI1 Log2FC / CBFB Log2FC / CCR2 Log2FC / CD44 Log2FC / CDK6 Log2FC / CEBPB Log2FC / CSF3R Log2FC / CTNNBIP1 Log2FC / ELANE Log2FC / EP300 Log2FC / FLI1 Log2FC / FUT4 Log2FC / GATA2 Log2FC / HCLS1 Log2FC / ITGA4 Log2FC / ITGAM Log2FC / ITGB1 Log2FC / ITGB2 Log2FC / JUN Log2FC / MPO Log2FC / MYC Log2FC / NFE2 Log2FC / PIR Log2FC / RUNX1 Log2FC / SOX4 Log2FC / SPI1 Log2FC / TESC Log2FC / TRIB1 Log2FC / ZBTB46 Log2FC / ZFP36L1 Log2FC: ML-2, RNA-Seq
Procedure: as §1, §2, §3, §4

[4] = HL-60, 25% GI50, 12 h, log2FC +/-1
[5] = ML-2, 25% GI50, 12 h, log2FC +/-1

## COc1cc2nc(-c3ccc(C)o3)cc(NCC3CCN(c4ncc(C(=O)NO)cn4)CC3)c2cc1OC [CM-444, 2-[4-[[[6,7-dimethoxy-2-(5-methyl-2-furyl)-4-quinolyl]amino]methyl]-1-piperidyl]pyrimidine-5-carbohydroxamic acid]
[1]
  CC50: 794 nM
[2]
  deregulated genes (RNA-seq): 227
  down-regulated genes (RNA-seq): 39
  up-regulated genes (RNA-seq): 188
  ABI1 Log2FC: -0.1754
  CBFB Log2FC: -0.0298
  CCR2 Log2FC: 0.967
  CD44 Log2FC: -0.2341
  CDK6 Log2FC: 0.2817
  CEBPB Log2FC: -0.1067
  CSF3R Log2FC: 0.0126
  CTNNBIP1 Log2FC: 0.7431
  ELANE Log2FC: -2.007
  EP300 Log2FC: -0.2558
  FLI1 Log2FC: -0.04836
  FUT4 Log2FC: -0.2495
  GATA2 Log2FC: -0.2076
  HCLS1 Log2FC: -0.2476
  ITGA4 Log2FC: -0.309
  ITGAM Log2FC: 0.9545
  ITGB1 Log2FC: 0.4474
  ITGB2 Log2FC: -0.1397
  JUN Log2FC: 0.8212
  MPO Log2FC: -0.2249
  MYC Log2FC: -0.2011
  NFE2 Log2FC: -0.621
  PIR Log2FC: 0.9082
  RUNX1 Log2FC: -0.1954
  SOX4 Log2FC: 0.2596
  SPI1 Log2FC: -0.5566
  TESC Log2FC: 0.05581
  TRIB1 Log2FC: 0.02008
  ZBTB46 Log2FC: 0.2361
  ZFP36L1 Log2FC: 0.9631
[2]; [4]
  deregulated genes (RNA-seq): 136
  down-regulated genes (RNA-seq): 3
  up-regulated genes (RNA-seq): 133
[3]
  deregulated genes (RNA-seq): 558
  down-regulated genes (RNA-seq): 88
  up-regulated genes (RNA-seq): 470
  ABI1 Log2FC: 0.61
  CBFB Log2FC: 0.4078
  CCR2 Log2FC: 0.3405
  CD44 Log2FC: 0.2468
  CDK6 Log2FC: -0.3705
  CEBPB Log2FC: 0.009186
  CSF3R Log2FC: -0.2226
  CTNNBIP1 Log2FC: 0.1064
  ELANE Log2FC: -0.8925
  EP300 Log2FC: 0.282
  FLI1 Log2FC: 0.279
  FUT4 Log2FC: -0.09706
  GATA2 Log2FC: 1.078
  HCLS1 Log2FC: 0.03361
  ITGA4 Log2FC: -0.1245
  ITGAM Log2FC: 1.391
  ITGB1 Log2FC: 0.4551
  ITGB2 Log2FC: -0.139
  JUN Log2FC: 1.102
  MPO Log2FC: -1.303
  MYC Log2FC: -0.4866
  NFE2 Log2FC: 0.3613
  PIR Log2FC: 1.319
  RUNX1 Log2FC: -0.08636
  SOX4 Log2FC: 0.2683
  SPI1 Log2FC: 0.1755
  TESC Log2FC: 0.4308
  TRIB1 Log2FC: -0.2715
  ZBTB46 Log2FC: -0.2139
  ZFP36L1 Log2FC: 2.504
[3]; [5]
  deregulated genes (RNA-seq): 460
  down-regulated genes (RNA-seq): 44
  up-regulated genes (RNA-seq): 416

## COc1cc2nc(-c3cc(C)oc3C)cc(NCC3CCN(c4ncc(C(=O)NO)cn4)CC3)c2cc1OC [CM-1758, 2-[4-[[[2-(2,5-dimethyl-3-furyl)-6,7-dimethoxy-4-quinolyl]amino]methyl] -1-piperidyl]pyrimidine-5-carbohydroxamic acid]
[1]
  CC50: 779 nM
[2]
  deregulated genes (RNA-seq): 3299
  down-regulated genes (RNA-seq): 1610
  up-regulated genes (RNA-seq): 1589
  ABI1 Log2FC: 0.03309
  CBFB Log2FC: -0.1665
  CCR2 Log2FC: 0.8564
  CD44 Log2FC: -0.4326
  CDK6 Log2FC: 0.05972
  CEBPB Log2FC: 0.4359
  CSF3R Log2FC: 0.06074
  CTNNBIP1 Log2FC: 1.186
  ELANE Log2FC: -1.7362
  EP300 Log2FC: -0.1778
  FLI1 Log2FC: -0.2831
  FUT4 Log2FC: -1.407
  GATA2 Log2FC: 0.09944
  HCLS1 Log2FC: -0.1237
  ITGA4 Log2FC: -1.197
  ITGAM Log2FC: 2.404
  ITGB1 Log2FC: 0.9626
  ITGB2 Log2FC: 0.07825
  JUN Log2FC: 0.9774
  MPO Log2FC: -2.297
  MYC Log2FC: -2.139
  NFE2 Log2FC: -0.3801
  PIR Log2FC: 1.629
  RUNX1 Log2FC: -0.01075
  SOX4 Log2FC: 0.2112
  SPI1 Log2FC: -0.6241
  TESC Log2FC: -0.09114
  TRIB1 Log2FC: -0.4986
  ZBTB46 Log2FC: 0.4368
  ZFP36L1 Log2FC: 1.334
[2]; [4]
  deregulated genes (RNA-seq): 1278
  down-regulated genes (RNA-seq): 409
  up-regulated genes (RNA-seq): 869
[3]
  deregulated genes (RNA-seq): 3750
  down-regulated genes (RNA-seq): 2024
  up-regulated genes (RNA-seq): 1726
  ABI1 Log2FC: 1.097
  CBFB Log2FC: 0.03944
  CCR2 Log2FC: -0.7456
  CD44 Log2FC: 0.03189
  CDK6 Log2FC: -1.439
  CEBPB Log2FC: 0.5234
  CSF3R Log2FC: -1.197
  CTNNBIP1 Log2FC: 0.1531
  ELANE Log2FC: -2.561
  EP300 Log2FC: 0.4661
  FLI1 Log2FC: -0.175
  FUT4 Log2FC: -1.092
  GATA2 Log2FC: 2.602
  HCLS1 Log2FC: -0.435
  ITGA4 Log2FC: -1.164
  ITGAM Log2FC: 1.457
  ITGB1 Log2FC: 0.9913
  ITGB2 Log2FC: -0.1511
  JUN Log2FC: 1.4026
  MPO Log2FC: -2.925
  MYC Log2FC: -2.637
  NFE2 Log2FC: -0.1388
  PIR Log2FC: 0.9099
  RUNX1 Log2FC: 0.04441
  SOX4 Log2FC: 0.5561
  SPI1 Log2FC: -1.467
  TESC Log2FC: -0.171
  TRIB1 Log2FC: -0.1972
  ZBTB46 Log2FC: -0.02647
  ZFP36L1 Log2FC: 4.387
[3]; [5]
  deregulated genes (RNA-seq): 2520
  down-regulated genes (RNA-seq): 1183
  up-regulated genes (RNA-seq): 1337
